From patent US20220296628A1, “RNA COMBINATIONS AND COMPOSITIONS WITH DECREASED IMMUNOSTIMULATORY PROPERTIES” (CureVac AG, priority 2019, published 2022)

Tested on: mice (strain 129SV)
Experiment: Serum cytokines by CBA 6 hours post LNP injection
Type: in vivo, mouse
Conditions: 6 hours post i.v. LNP injection, in a dose-dependent manner (oligo 20% or 6.7% mass), compared to PpLuc mRNA only (FIG. 4A)
Procedure: In supernatants collected from PBMC stimulated without or with 2-O-methylated oligonucleotide, the concentrations of IFN-α, IFN-γ, TNF, were measured by Cytometric Bead Array (CBA) according to the manufacturer's instructions (BD Biosciences) using the following kits: Human Soluble Protein Master Buffer Kit (catalog no. 558264), Assay Diluent (catalog no. 560104), Human IFN-α Flex Set (catalog no. 560379), Human IFN-γ Flex Set (catalog no. 558269), Human TNF Flex Set (catalog no. 560112); all kits from BD Biosciences. The data was analyzed using the FCAP Array v3.0 software (BD Biosciences). For preparation of Lipid nanoparticles (LNP) containing both PpLuc mRNA and 2-O-methylated oligonucleotide, first the 2′-O-methylated oligonucleotide was added to PpLuc mRNA at a weight percentage of either 20% or 6.7% (see Table 3). LNP containing PpLuc mRNA either with or without admixture of 2-O-methylated oligonucleotide were prepared using cationic lipid, cholesterol, PEG-lipid and a neutral lipid. The mRNA was diluted to 1 g/L in citrate buffer, pH 4. The ethanolic lipid solution was mixed with the aqueous RNA solution at a ratio of 1:3 (vol/vol) using a Nanoassemblr (PrecisionNanoSystems). The ethanol was then removed and the buffer replaced by 10 mM HEPES, pH 7.4 comprising 9% Sucrose by dialysis. Finally, the LNP-formulated RNA was adjusted to 0.2 g/L. For in vivo experiments, 8 weeks old female mice (around 25 g, strain 129SV) were injected with the various LNP formulations (see tables 4 and 5). 4 animals were used per group. 10 μg or 30 μg of mRNA formulated with or without 2′-O-methylated oligonucleotide were intravenously injected at a concentration of 0.2 g/l. Bioluminescence imaging was performed 6 hours and 24 hours post LNP injection. Blood was sampled 6 hours post LNP injection and terminally 24 hours post LNP injection. Immediately thereafter, mice were sacrificed, livers collected and placed in 1.5 ml PP tubes, frozen and stored until analysis (<−70° C.). To analyse the influence of the 2′-O-methylated oligonucleotide on immunostimulation, the concentrations of IFNγ, TNFα, IL-6, MIP-1β, RANTES, and MCP1 were measured in sera from blood collected 6 hours post LNP injection by Cytometric Bead Array (CBA), performed as described in paragraph 2.3. […] To further assess the influence of the 2′-O-methylated oligonucleotide on immunostimulation, the concentration of IFNα was measured in sera from blood collected 24 hours post LNP injection by ELISA.

5′-GAG CGmG CCA-3′ (GAGCNGCCA; 2'-O-methyl guanosine at position 5; 9mer oligonucleotide; modified_base (5)..(5) n can be any nucleotide, wherein the nucleotide is 2-O-methylated, preferably a 2-O-methylated guanosine) [Gm18, 9-mer 2′-O-methylated RNA oligonucleotide; position 5 is 2′-O-methylated guanosine (Gm); antagonist of TLR7 and 8]
strongly decreases the release: release of IFNγ in sera | release of IL-6 in sera | release of MCP1 in sera | release of MIP-1β in sera | release of RANTES in sera | release of TNFα in sera
